Assay results published in patent US5130300A, “Method for enhancing growth of mammary parenchyma” (Monsanto Company, priority 1987, dated 1992).

Experiments:
L6 myoblast = test: Standard L6 myoblast assays; format: cell-based
Description: (§1) 24 pregnant, non-lactating, cross-bred beef cows within their last 40-80 days of gestation were housed in a free-stall facility, fed a ration of alfalfa hay and pelleted concentrate, and administered 10 ml of an excipient (a sesame oil emulsion of the kind used in Examples 4-6) into each half-udder by intramammary infusion through the streak canal on days 1, 3, 5, 7 and 9 of this study. The infusion technique, random assignment of half-udders to treatment or control, and treatment vs. control comparisons were as in Examples 1-2. In the treatment infusions, the excipient contained bovine insulin-like growth factor-I (bIGF-I) prepared by expression in E. coli (Prla Strain 079) of recombinant DNA coding for bIGF-I fused to the "lam" B cell wall protein signal sequence, secretion into the E. coli periplasmic space, and recovery/purification by conventional techniques including gel filtration, cation exchange and reverse-phase HPLC. This bIGF-I had the same amino acid sequence and secondary structure as the AMgen human IGF-I used in Example 20. In standard L6 myoblast assays, its activity was essentially the same (90-123%) as that of the Example 20 hIGF-I. The amounts of bIGF-I in each infusion were: Group 1-2.5 micrograms: Group 2-25 micrograms; Group 3-250 micrograms. Animals were prepared and infused, and their quarter-udder weights and DNA were determined as in Example 3-6.

[1] = tested on: Quarter-Udders in Pregnant Beef Cows; test: Intramammary infusion of bIGF-I, quarter-udder weights and DNA (Examples 14-16); format: in vivo, cross-bred beef cows
Description: as §1
When the procedures described for Groups 1-3 were repeated, results were essentially the same. Pooling results from the original study and its replication, it was determined that both treatment and control quarter-udders had grown as follows: […]

[2] = Group 1: total of 12.5 micrograms bIGF-I
[3] = Group 1: total of 12.5 micrograms bIGF-I, sesame oil emulsion
[4] = Group 1: total of 12.5 micrograms bIGF-I, B = excipient only

Substance: bIGF-I: bovine insulin-like growth factor-I prepared by expression in E. coli of recombinant DNA
- Activity relative to the Example 20 hIGF-I (L6 myoblast): 90-123%
- DNA, Avg % Increase/Animal [1, 2]: 12.5%
- Dry Fat-Free Weight, Avg % Increase/Animal [1, 2]: 16.0%
- Dry Weight, Avg % Increase/Animal [1, 2]: 8.8%
- Wet Weight, Avg % Increase/Animal [1, 2]: 11.0%
- DNA, Treatment Mean [1, 3]: 1307 mg
- Dry Fat-Free Weight, Treatment Mean [1, 3]: 54.9 g
- Dry Weight, Treatment Mean [1, 3]: 111.7 g
- Wet Weight, Treatment Mean [1, 3]: 408.4 g
- DNA, % Increase, (A-B)/B [1, 4]: 7.2%
- DNA, Mean Increase (A-B) [1, 4]: 88 mg
- Dry Fat-Free Weight, % Increase, (A-B)/B [1, 4]: 14.2%
- Dry Fat-Free Weight, Mean Increase (A-B) [1, 4]: 6.9 g
- Dry Weight, % Increase, (A-B)/B [1, 4]: 8.7%
- Dry Weight, Mean Increase (A-B) [1, 4]: 9.0 g
- Wet Weight, % Increase, (A-B)/B [1, 4]: 10.7%
- Wet Weight, Mean Increase (A-B) [1, 4]: 39.4 g
- Plasma levels of bIGF-I during the study ([1]; intramammary infusion, pregnant beef cows): did not increase significantly
- Growth of quarter-udders combined, Medium vs. Low dose ([1]; pooled original study and replication, 25 vs 2.5 micrograms bIGF-I per infusion, Combined): +25%
- Growth of control quarter-udders, Medium vs. Low dose ([1]; pooled original study and replication, 25 vs 2.5 micrograms bIGF-I per infusion, Controls): +27%
- Growth of treatment quarter-udders, Medium vs. Low dose ([1]; pooled original study and replication, 25 vs 2.5 micrograms bIGF-I per infusion, Treatment): +23.1%
- Growth of quarter-udders combined, High vs. Low dose ([1]; pooled original study and replication, 250 vs 2.5 micrograms bIGF-I per infusion, Combined): +67%
- Growth of control quarter-udders, High vs. Low dose ([1]; pooled original study and replication, 250 vs 2.5 micrograms bIGF-I per infusion, Controls): +71.3%
- Growth of treatment quarter-udders, High vs. Low dose ([1]; pooled original study and replication, 250 vs 2.5 micrograms bIGF-I per infusion, Treatment): +62%
- Growth of quarter-udders combined, High vs. Medium dose ([1]; pooled original study and replication, 250 vs 25 micrograms bIGF-I per infusion, Combined): +33%
- Growth of control quarter-udders, High vs. Medium dose ([1]; pooled original study and replication, 250 vs 25 micrograms bIGF-I per infusion, Controls): +34.4%
- Growth of treatment quarter-udders, High vs. Medium dose ([1]; pooled original study and replication, 250 vs 25 micrograms bIGF-I per infusion, Treatment): +31.5%
- Growth of the non-infused quarters ([1]; two higher doses (Groups 2-3)): substantial growth
- Growth of treatment quarters vs. control quarters ([1]; two higher doses (Groups 2-3: 25 and 250 micrograms per infusion)): did not produce consistently greater growth of treatment quarters vs. control quarters
